Laboratory results taken from article PMC7932537, “Quantitative profiling of protease specificity” (PLoS Computational Biology, 2021).

Tests used:
MMP-9 = test: Substrate phage display with NGS: relative probability (RP) of P3-P1' tetramer clusters; assay type: biochemical, human; conditions: for normalized RP - MMP9: normalized RP of matching tetramer; for corresponding MMP9 relative probability (RP): MMP2 tetramers from unique substrates, RP of same tetramer for MMP9
MMP-2 = test: as above; assay type: biochemical, human; conditions: for relative probability (RP) of matching tetramer: P3-P1' tetramer matching the MS detected MMP2 cleavage sequence, RP_above_4.5; for normalized RP - MMP2: normalized RP of matching tetramer; for MMP2 relative probability (RP): MMP2 tetramers from unique substrates, unrounded values; for avg_RP: MMP2 - no binning, average relative probability of the tetramer, redundant tetramers averaged out
[1] = RP of matching tetramer, unique part of MMP2 selectome
[2] = RP of matching tetramer, unique part of MMP2 selectome, RP above KL threshold
[3] = RP according to MMP9, P3-P1' tetramer of unique physiologic MMP9 substrates from MEROPS
[4] = RP of the P3-P1' tetramer, MMP9 substrate phage display/NGS, tetramers of physiologic MEROPS substrates common to MMP2 and MMP9
[5] = RP according to MMP2, P3-P1' tetramer of unique physiologic MMP2 substrates from MEROPS
[6] = RP of the P3-P1' tetramer, MMP2 substrate phage display/NGS, tetramers of physiologic MEROPS substrates common to MMP2 and MMP9
[7] = tetramer projected onto MMP-9 cleavage sites determined by Prudova et al. (2010)
[8] = MMP9, RP of the P3-P1' tetramer contained in the hexamer substrate (substrate phage display, NGS)
[9] = RP of the P3-P1' tetramer cluster contained in the hexamer, 200 nM MMP-2, 2 h, 37°C, two rounds of selection
[10] = MMP9, RP of matching P3-P1' tetramer, common set of MMP2-9 selectome
[11] = MMP9, RP of the P3-P1' tetramer matching the MS detected cleavage, RP above 4.7, substrate phage display with NGS
[12] = RP of matching tetramer, common MMP2-9 selectome, RP above KL threshold
[13] = MMP2, RP of matching P3-P1' tetramer, common set of MMP2-9 selectome, RP above KL threshold
[14] = RP of matching tetramer, common MMP2-9 selectome

With PESW the “relative probability (RP) (acc.to MMP9)” value (MMP-9; [1]) was 1.77, the “normalized RP - MMP9” value (MMP-9; unique part of MMP2 selectome) was 0.03379 and the “relative probability (RP) of matching tetramer” value (MMP-2) was 4.73. The “relative probability (RP) (acc.to MMP2)” value (MMP-2; [2]) was 4.73 and the “normalized RP - MMP2” value (MMP-2; unique part of MMP2 selectome) was 0.1295.

With LGVM the “corresponding MMP9 relative probability (RP)” value (MMP-9) was 1.791, the “Relative probability (RP) rank” value (MMP-9; [3]) was 10648 and the “relative probability (RP)” value (MMP-9; [3]) was 1.79. The “relative probability (RP) (acc.to MMP9)” value (MMP-9; [4]) was 1.79, the “MMP2 relative probability (RP)” value (MMP-2) was 4.758 and the “Relative probability (RP) rank” value (MMP-2; [5]) was 7712. For the same substance, the “relative probability (RP)” value (MMP-2; [5]) was 4.76 and the “relative probability (RP) (acc.to MMP2)” value (MMP-2; [6]) was 4.76.

With IGGL [P3-P1' tetramer cluster] the “relative probability (RP) (acc.to MMP9)” value (MMP-9; [1]) was 4.4, the “normalized RP - MMP9” value (MMP-9; unique part of MMP2 selectome) was 0.084 and the “relative probability (RP)” value (MMP-9; [7]) was 4.4. The “relative probability (RP) of matching tetramer” value (MMP-2) was 26.48, the “relative probability (RP) (acc.to MMP2)” value (MMP-2; [2]) was 26.48 and the “normalized RP - MMP2” value (MMP-2; unique part of MMP2 selectome) was 0.7251.

With PEPAAL the “relative probability (RP)” value (MMP-9; [8]) was 47.6262 and the “relative probability (RP)” value (MMP-2; [9]) was 35.8015.

RPEDLR was tested, and the “relative probability (RP)” value (MMP-9; [8]) was 13.0748 and the “relative probability (RP)” value (MMP-2; [9]) was 6.012.

In the case of LAEL [P3-P1' tetramer cluster], the “relative probability (RP)” value (MMP-9; [7]) is reported as 0.44 and the avg_RP (MMP-2) is reported as 27.078.

In the case of PTGK, the “relative probability (RP) (acc.to MMP9)” value (MMP-9; [4]) is reported as 0 and the “relative probability (RP) (acc.to MMP2)” value (MMP-2; [6]) is reported as 0.04.

PTGV was tested, and the “relative probability (RP) (acc.to MMP9)” value (MMP-9; [4]) was 11.14 and the “relative probability (RP) (acc.to MMP2)” value (MMP-2; [6]) was 13.32.

With PEGLQG the “relative probability (RP)” value (MMP-9; [8]) was 39.4116 and the “relative probability (RP)” value (MMP-2; [9]) was 29.5031.

In the case of PQGL, the “relative probability (RP) (acc.to MMP9)” value (MMP-9; [4]) is reported as 47.86 and the “relative probability (RP) (acc.to MMP2)” value (MMP-2; [6]) is reported as 33.52.

TTPSPI was tested, and the “relative probability (RP)” value (MMP-9; [8]) was 43.889 and the “relative probability (RP)” value (MMP-2; [9]) was 32.5241.

In the case of AAAL, the “relative probability (RP) (acc.to MMP9)” value (MMP-9; [10]) is reported as 32.12, the “relative probability (RP)” value (MMP-9; [11]) is reported as 32.12 and the “relative probability (RP) (acc.to MMP9)” value (MMP-9; [12]) is reported as 32.12. For the same substance, the “relative probability (RP) (acc.to MMP2)” value (MMP-2; [13]) was 31.4, the “relative probability (RP) of matching tetramer” value (MMP-2) was 31.4 and the “relative probability (RP) (acc.to MMP2)” value (MMP-2; [14]) was 31.4. The “relative probability (RP)” value (MMP-2; tetramer annotation of MMP-2 cleavage sites in all substrates from MEROPS) was 31.4.

With QQPQAL the “relative probability (RP)” value (MMP-9; [8]) was 48.457 and the “relative probability (RP)” value (MMP-2; [9]) was 34.4508.

With GPKGFR the “relative probability (RP)” value (MMP-9; [8]) was 42.0715 and the “relative probability (RP)” value (MMP-2; [9]) was 30.2308.

For VEPLKF, the “relative probability (RP)” value (MMP-9; [8]) was 27.4837 and the “relative probability (RP)” value (MMP-2; [9]) was 11.7082.

With NEGL the “relative probability (RP) (acc.to MMP9)” value (MMP-9; [4]) was 0 and the “relative probability (RP) (acc.to MMP2)” value (MMP-2; [6]) was 0.16.

For GKPVSM, the “relative probability (RP)” value (MMP-9; [8]) was 41.2029 and the “relative probability (RP)” value (MMP-2; [9]) was 30.0644.

With PHGYKG the “relative probability (RP)” value (MMP-9; [8]) was 44.1642 and the “relative probability (RP)” value (MMP-2; [9]) was 24.9359.

In the case of INPQGL, the “relative probability (RP)” value (MMP-9; [8]) is reported as 47.8621 and the “relative probability (RP)” value (MMP-2; [9]) is reported as 33.5241.

With TPAAMT the “relative probability (RP)” value (MMP-9; [8]) was 48.1518 and the “relative probability (RP)” value (MMP-2; [9]) was 33.3115.

FKNI was tested, and the “relative probability (RP) (acc.to MMP9)” value (MMP-9; [4]) was 0.09 and the “relative probability (RP) (acc.to MMP2)” value (MMP-2; [6]) was 0.14.

In the case of PVEL, the “relative probability (RP) (acc.to MMP9)” value (MMP-9; [4]) is reported as 35.1 and the “relative probability (RP) (acc.to MMP2)” value (MMP-2; [6]) is reported as 25.47.

PAGE was tested, and the “relative probability (RP) (acc.to MMP9)” value (MMP-9; [4]) was 0.06 and the “relative probability (RP) (acc.to MMP2)” value (MMP-2; [6]) was 0.05.

QRGI was tested, and the “corresponding MMP9 relative probability (RP)” value (MMP-9) was 0.7406, the “Relative probability (RP) rank” value (MMP-9; [3]) was 19198 and the “relative probability (RP)” value (MMP-9; [3]) was 0.74. For the same substance, the “relative probability (RP) (acc.to MMP9)” value (MMP-9; [4]) was 0.74, the avg_RP (MMP-2) was 7.4836 and the “MMP2 relative probability (RP)” value (MMP-2) was 7.484. For the same substance, the “Relative probability (RP) rank” value (MMP-2; [5]) was 6090, the “relative probability (RP)” value (MMP-2; [5]) was 7.48 and the “relative probability (RP) (acc.to MMP2)” value (MMP-2; [6]) was 7.48.

In the case of MAGM, the “corresponding MMP9 relative probability (RP)” value (MMP-9) is reported as 0.06237, the “MMP2 relative probability (RP)” value (MMP-2) is reported as 21.4504 and the “Relative probability (RP) rank” value (MMP-2; [5]) is reported as 1484. For the same substance, the “relative probability (RP)” value (MMP-2; [5]) was 21.45.

With KSPVGV the “relative probability (RP)” value (MMP-9; [8]) was 34.3287 and the “relative probability (RP)” value (MMP-2; [9]) was 27.6556.

For IGTY, the “relative probability (RP) (acc.to MMP9)” value (MMP-9; [1]) was 0.06, the “normalized RP - MMP9” value (MMP-9; unique part of MMP2 selectome) was 0.001145 and the “relative probability (RP) of matching tetramer” value (MMP-2) was 5.18. The “relative probability (RP) (acc.to MMP2)” value (MMP-2; [2]) was 5.18 and the “normalized RP - MMP2” value (MMP-2; unique part of MMP2 selectome) was 0.1418.

PRAV was tested, and the “relative probability (RP) (acc.to MMP9)” value (MMP-9; [10]) was 40.85, the “relative probability (RP)” value (MMP-9; [11]) was 40.85 and the “relative probability (RP) (acc.to MMP9)” value (MMP-9; [12]) was 40.85. For the same substance, the avg_RP (MMP-2) was 28.3444, the “relative probability (RP) (acc.to MMP2)” value (MMP-2; [13]) was 28.34 and the “relative probability (RP) of matching tetramer” value (MMP-2) was 28.34. The “relative probability (RP) (acc.to MMP2)” value (MMP-2; [14]) was 28.34.

With PRPY the “relative probability (RP) (acc.to MMP9)” value (MMP-9; [10]) was 47.69, the “relative probability (RP)” value (MMP-9; [11]) was 47.69 and the “relative probability (RP) (acc.to MMP9)” value (MMP-9; [12]) was 47.69. For the same substance, the “relative probability (RP) (acc.to MMP2)” value (MMP-2; [13]) was 33.44, the “relative probability (RP) of matching tetramer” value (MMP-2) was 33.44 and the “relative probability (RP) (acc.to MMP2)” value (MMP-2; [14]) was 33.44.

For QAQL, the “relative probability (RP) (acc.to MMP9)” value (MMP-9; [1]) was 0.06, the “normalized RP - MMP9” value (MMP-9; unique part of MMP2 selectome) was 0.001145 and the “relative probability (RP) of matching tetramer” value (MMP-2) was 6.16. The “relative probability (RP) (acc.to MMP2)” value (MMP-2; [2]) was 6.16 and the “normalized RP - MMP2” value (MMP-2; unique part of MMP2 selectome) was 0.1687.
